The record followed here is patent US12600716B2 (Gannex Pharma Co., Ltd., priority 2020, dated 2026).

Series [1] can be described thus: Mouse pharmacokinetic studies (IV and PO). The format is in vivo, Male CD-1 mice. Particulars: for PO F: PO 10 mg/kg vs IV 2.0 mg/kg; for Vd / AUC(0-t) / clearance / half-life / Cmax / Tmax: male, CD-1, plasma; for clearance: read-out: IV Cl; for half-life: read-out: IV T½ (converted). The method, then:
Mouse Pharmacokinetic Studies
Typical PK study procedure. For i.v. PK studies, a group of three fasted Male CD-1 mice were dosed with the compound (2.0 mg/kg, 0.50 mg/mL in 5% solutol in saline, clear solution), and 0.02 mL blood was collected at 0.0830, 0.250, 0.500, 1.00, 2.00, 4.00, 8.00, 24.0 h. For PO PK studies, a group of three fasted Male CD-1 mice were dosed with the compound (10 mg/kg, 1 mg/mL in 5% solutol in saline, clear solution), and 0.02 mL blood was collected at 0.250, 0.500, 1.00, 2.00, 4.00, 6.00, 8.00, 24.0 h. The blood was collected into EP tubes (containing EDTA K20.85-1.15 mg) and centrifuged at 3,000 g or 3,200 g at 4° C. for 10 min) and plasma was isolated and divided into two vials. One was used for bioanalysis and one was kept as backup. The samples were kept at −60° C. or below, until being analyzed by LC MS/MS. The samples were analyzed with AB SCIEX INSTRUMENTS LC-MS/MS AU-Triple Quad 6500 Plus and data were processed with Phoenix WinNonlin 6.3 (IV-noncompartmental model and PO-noncompartmental model).

Series [2] addresses T1, hFXR-LBD-GAL4 (Homo sapiens, UniProt Q96RI1).
T1 construct: GAL4 (fusion partner); host or cells: HEK293T
T1 sequence (Q96RI1 262-486 limits assumed): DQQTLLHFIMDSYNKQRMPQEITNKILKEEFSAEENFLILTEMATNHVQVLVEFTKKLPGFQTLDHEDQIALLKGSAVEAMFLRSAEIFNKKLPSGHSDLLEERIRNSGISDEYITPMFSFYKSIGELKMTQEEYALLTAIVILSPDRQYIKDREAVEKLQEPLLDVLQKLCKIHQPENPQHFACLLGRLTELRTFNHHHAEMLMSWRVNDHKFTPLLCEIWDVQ
Description: FXR agonist transactivation ability: luciferase reporter gene in HEK293T. The format is cell-based. Particulars: read-out: Cell activity. The method, then: FXR Agonist Transactivation Ability
Evaluation of the ability of the compound of the present invention to promote FXR transactivation was conducted by using luciferase reporter gene expression technology.
• 1. Cell line: HEK293T (Invitrogen) • 2. Expression plasmid: pBIND-hFXR-LBD-GAL4 (Promega), pGL4.35-luciferase (Promega) • 3. Cell culture medium: 10% serum and penicillin/streptomycin double antibody in DMEM medium • 4. Detection reagent: Steady-Glo fluorescence detection system (Promega). • 5. Transfection reagent: TransIT-293 Transfection Reagent (MIRUS BIO)
• 1. The compound was prepared into a 10 mM DMSO stock solution and stored in a −20° C. refrigerator for a long time. • 2. Resuscitation HEK293T cells were seeded in 10 cm culture dishes at a concentration of 5.5×10^6 and incubated for 16 hours at 37° C. in a 5% CO2 incubator. • 3. Return the transfection reagent to room temperature before transfection. The Trans-IT solution was added dropwise to Opti-MEM, and mixed by inversion for 5 minutes; the expression plasmid was added, mixed by inversion, and incubated at room temperature for 20 minutes. • 4. Add the transfection mixture from Step 3 to the prepared 10 cm dish in Step 2 and incubate for 5-6 hours in a 5% CO2 incubator. • 5. Dilute the compound 3 folds to 10 concentration points using DMSO; add 25 nl of compound per well in a 384-well plate using an Echo 550 sonic pipette; add HEK293T cells to the 384-well plate at a concentration of 15,000 cells/well; 37° C. incubate for 16-20 hours in a 5% CO2 incubator. • 6. Add 25 μl of Steady-Glo Fluorescent Reagent to each well and read the fluorescence on an Envision 2104 plate reader. • 7. Calculate the EC50 value of the activation of the compound.
A general note: In a reporter assay the amount or activity of a reporter protein is the signal.

Series [3] has as its target T2, human FXR protein (Homo sapiens, UniProt Q96RI1).
T2 construct: purchased Invitrogen
Description: FXR agonist binding ability: time-resolved fluorescence (LanthaScreen) FXR/coactivator assay. The format is biochemical. Conditions: GST-labeled human FXR, fluorescein-labeled coactivator, TR-FRET. The protocol: FXR Agonist Binding Ability Evaluation of the activation effect of the compound of the present invention with regard to the binding of FXR to its co-stimulatory factor SRC-1 was conducted by using time-resolved analytical techniques. Protein: glutathione-S-transferase (GST)-labeled human FXR protein (Invitrogen) • 2. Coactivator: Fluorescein-labeled steroid receptor coactivator (SRC2-2) (Invitrogen) • 3. Detection reagent: LanthaScreen Time-Resolved Fluorescence Analysis Kit (Invitrogen) • 1. The compound was prepared into a 10 mM DMSO stock solution and stored in a −20° C. refrigerator for a long time. • 2. The compound was diluted to 1 mM before the experiment, and then the compound was diluted 3-fold to 10 concentration points using DMSO. Then use buffer G (Invitrogen, PV4553) to dilute these 10 concentration points by 50 times to become a working fluid. Add 10 μl of each working solution to each well of a 384-well plate. • 3. Prepare a human FXR protein solution (final concentration 20 nM) in chilled buffer G and add 5 μl of human FXR protein solution to each well of a 384-well plate. • 4. Prepare a mix of buffer G containing 2 μM fluorescein-labeled steroid receptor coactivator and 20 nM GST antibody. • 5. Add 5 μl of the mixture prepared in Step 4 to a 384-well plate. • 6. Centrifuge the 384-well plate at 1000 g for 1 minute. • 7. Incubate for 1 hour at room temperature in the dark. • 8. Read the 384-well plate at 520 nm and 495 nm on an Envision 2104 plate reader. • 9. Calculate the EC50 value of the activation effect of the compound.
In general terms: In TR-FRET formats the signal depends on donor and acceptor labels being close together.

Where [4] appears, read: IV 2.0 mg/kg, read-out: IV AUC 0-t.
Setting [5] is: PO 10 mg/kg, read-out: PO AUC 0-t.

Read-outs that look alike come from different tables or passages of the source.

By AUC(0-t) is commonly meant exposure summed from dosing to a finite time, without extrapolation to infinity. A word on the Cmax: it is the highest concentration seen after dosing. For orientation: Tmax means the time at which the peak concentration occurs. In the case of `O=C(O)c1ccc(F)cc1Oc1cccc2cc(OCc3c(-c4c(Cl)cccc4Cl)noc3C3CC3)ccc12` [Compound 26, 2-((6-((5-cyclopropyl-3-(2,6-dichlorophenyl)isoxazol-4-yl)methoxy)naphthalen-1-yl)oxy)-4-fluorobenzoic acid], in series [1], the “PO F” value is 17%. Moreover, in series [1] (IV 2.0 mg/kg), the Vd was 0.745 L/kg, the clearance was determined as 35 mL/min/kg and the half-life is 37.2 min. Further, the AUC(0-t) in series [1] (setting [4]) is 969 ng·h/mL. In series [1] (PO 10 mg/kg), the Cmax is 900 ng/mL and the Tmax turned out to be 30 min. In addition, the AUC(0-t) in series [1] (setting [5]) turned out to be 830 ng·h/mL. Further, in series [2], the EC50 was < 0.2 µM. Also, in series [3], the EC50 was < 0.05 µM.
As to `O=C(O)c1ccc(Oc2ccc3cc(OCc4c(-c5c(Cl)cccc5Cl)noc4C4CC4)ccc3c2Cl)nc1` [Compound 21, 6-((1-chloro-6-((5-cyclopropyl-3-(2,6-dichlorophenyl)isoxazol-4-yl)methoxy)naphthalen-2-yl)oxy)nicotinic acid], the “PO F” value in series [1] was determined as 46.2%. Also, in series [1] (IV 2.0 mg/kg), the Vd was 1.75 L/kg, the clearance turned out to be 35.8 mL/min/kg and the half-life is 76.8 min. Moreover, the AUC(0-t) in series [1] (setting [4]) was found to be 969 ng·h/mL. In series [1] (PO 10 mg/kg), the highest level (Cmax) was 1480 ng/mL and the Tmax turned out to be 30 min. Further, the AUC(0-t) in series [1] (setting [5]) turned out to be 2220 ng·h/mL. Besides, in series [2], the EC50 was < 0.2 µM. Further, the EC50 in series [3] was in the range of 0.05 to 0.5 µM.
As to `O=C(O)c1ccc(Oc2ccc3ccc(OCc4c(-c5c(Cl)cccc5Cl)noc4C4CC4)cc3c2)nc1` [Compound 31, 6-((7-((5-cyclopropyl-3-(2,6-dichlorophenyl)isoxazol-4-yl)methoxy)naphthalen-2-yl)oxy)nicotinic acid], the “PO F” value in series [1] came to 9.74%. Further, in series [1] (IV 2.0 mg/kg), the Vd was 2.77 L/kg, the clearance stood at 110 mL/min/kg and the half-life was 36.8 min. Besides, the AUC(0-t) in series [1] (setting [4]) was found to be 304 ng·h/mL. In addition, in series [1] (PO 10 mg/kg), the Cmax worked out at 133 ng/mL and the Tmax worked out at 20 min. For the same molecule, the AUC(0-t) in series [1] (setting [5]) is 140 ng·h/mL. Moreover, the EC50 in series [2] is < 0.2 µM. In series [3], the EC50 was < 0.05 µM.
For `O=C(O)c1ncccc1Oc1ccc2cc(OCc3c(-c4c(Cl)cccc4Cl)noc3C3CC3)ccc2c1` [Compound 13, 3-((6-((5-cyclopropyl-3-(2,6-dichlorophenyl)isoxazol-4-yl)methoxy)naphthalen-2-yl)oxy)picolinic acid], the EC50 in series [2] was > 1 µM; in series [3], 0.05 to 0.5 µM.
As to `O=C(O)c1ccc(Oc2ccc3c(OCc4c(-c5c(Cl)cccc5Cl)noc4C4CC4)cccc3c2)nc1` [Compound 36, 6-((5-((5-cyclopropyl-3-(2,6-dichlorophenyl)isoxazol-4-yl)methoxy)naphthalen-2-yl)oxy)nicotinic acid], the EC50 in series [2] was > 1 µM; in series [3] it was 0.05 to 0.5 µM.
Regarding `O=C(O)c1ccc(Oc2ccc3cc(OCc4c(-c5c(Cl)cccc5Cl)noc4C4CC4)ccc3c2)cn1` [Compound 9, 5-((6-((5-cyclopropyl-3-(2,6-dichlorophenyl)isoxazol-4-yl)methoxy)naphthalen-2-yl)oxy)picolinic acid], the EC50 in series [2] is > 1 µM; in series [3], 0.05 to 0.5 µM.
Take `O=C(O)c1ccc(Oc2c(Cl)ccc3cc(OCc4c(-c5c(Cl)cccc5Cl)noc4C4CC4)ccc23)nc1` [Compound 42, 6-((2-chloro-6-((5-cyclopropyl-3-(2,6-dichlorophenyl)isoxazol-4-yl)methoxy)naphthalen-1-yl)oxy)nicotinic acid]: the values for the EC50 in series [2] and in series [3] were > 1 µM and > 0.5 µM, respectively.
The matching figures for `O=C(O)c1c(F)cccc1Oc1cccc2cc(OCc3c(-c4c(Cl)cccc4Cl)noc3C3CC3)ccc12` [Compound 49]: > 1 µM and 0.05 to 0.5 µM.
Consider `O=C(O)c1ccc(Oc2c(F)ccc3cc(OCc4c(-c5c(Cl)cccc5Cl)noc4C4CC4)ccc23)nc1` [Compound 30, 6-((6-((5-cyclopropyl-3-(2,6-dichlorophenyl)isoxazol-4-yl)methoxy)-2-fluoronaphthalen-1-yl)oxy)nicotinic acid], for which the EC50 is < 0.2 µM in series [2] and < 0.05 µM in series [3].
Take `O=C(O)c1ccncc1Oc1ccc2cc(OCc3c(-c4c(Cl)cccc4Cl)noc3C3CC3)ccc2c1` [Compound 16, 3-((6-((5-cyclopropyl-3-(2,6-dichlorophenyl)isoxazol-4-yl)methoxy)naphthalen-2-yl)oxy)isonicotinic acid]: the figures for the EC50 in series [2] and in series [3] were > 1 µM and < 0.05 µM, respectively.
On the same counts, the results for `O=C(O)c1ccccc1Oc1ccc2cc(OCc3c(-c4c(Cl)cccc4Cl)noc3C3CC3)ccc2c1` [Compound 14, 2-((6-((5-cyclopropyl-3-(2,6-dichlorophenyl)isoxazol-4-yl)methoxy)naphthalen-2-yl)oxy)benzoic acid] are > 1 µM and 0.05 to 0.5 µM.
As to `O=C(O)c1cnc(Oc2ccc3cc(OCc4c(-c5c(Cl)cccc5Cl)noc4C4CC4)ccc3c2)cn1` [Compound 7, 5-((6-((5-cyclopropyl-3-(2,6-dichlorophenyl)isoxazol-4-yl)methoxy)naphthalen-2-yl)oxy)pyrazine-2-carboxylic acid], the EC50 in series [2] is > 1 µM; in series [3] it was > 0.5 µM.
Consider `Cc1nc(Oc2cccc3c(F)c(OCc4c(-c5c(Cl)cccc5Cl)noc4C4CC4)ccc23)ccc1C(=O)O` [Compound 39, 6-((6-((5-cyclopropyl-3-(2,6-dichlorophenyl)isoxazol-4-yl)methoxy)-5-fluoronaphthalen-1-yl)oxy)-2-methylnicotinic acid], for which the EC50 in series [2] is < 0.2 µM; in series [3], < 0.05 µM.
On the same counts, the results for `O=C(O)c1ccc(Oc2ccc3ccc(OCc4c(-c5c(Cl)cccc5Cl)noc4C4CC4)c(F)c3c2)nc1` [Compound 38, 6-((7-((5-cyclopropyl-3-(2,6-dichlorophenyl)isoxazol-4-yl)methoxy)-8-fluoronaphthalen-2-yl)oxy)nicotinic acid] are 0.5 to 1 µM and < 0.05 µM.
Turning to `Cc1nc(Oc2c(Cl)ccc3cc(OCc4c(-c5c(Cl)cccc5Cl)noc4C4CC4)ccc23)ccc1C(=O)O` [Compound 46, 6((2-chloro-6 ((5-cyclopropyl-3-(2,6-dichlorophenyl)isoxazol-4-yl)methoxy)naphthalen-1-yl)oxy)-2-methylnicotinic acid], the results for the EC50 in series [2] and in series [3] were < 0.2 µM and 0.05 to 0.5 µM, respectively.
